Assay results reported in the NIST ThermoML archive (doi:10.1016/j.jct.2016.04.014).

Conditions: Liquid, Vibrating tube method

CCO [ethanol]
mass density [kg/m3]
Conditions | 323.15 K | 328.15 K | 333.15 K | 343.15 K | 353.15 K | 363.15 K | 373.15 K | 393.15 K | 413.15 K
100 kPa | – | 758.7 | 754.1 | 744.6 | – | – | – | – | –
1000 kPa | – | 759.6 | 755 | 745.6 | 736 | 725.9 | 715.3 | 692.2 | 666.3
5000 kPa | – | 763.6 | 759.1 | 750 | 740.6 | 730.8 | 720.6 | 698.4 | 673.6
10000 kPa | – | 768.3 | 764 | 755.2 | 746.2 | 736.7 | 727 | 705.8 | 682.3
15000 kPa | – | 772.9 | 768.8 | 760.2 | 751.5 | 742.4 | 733 | 712.8 | 690.5
20000 kPa | – | 777.3 | 773.3 | 765 | 756.5 | 747.7 | 738.7 | 719.4 | 698.1
25000 kPa | – | 781.6 | 777.6 | 769.6 | 761.3 | 752.8 | 744.2 | 725.6 | 705.3
30000 kPa | – | 785.6 | 781.7 | 773.9 | 765.9 | 757.7 | 749.3 | 731.4 | 712
35000 kPa | – | 789.5 | 785.7 | 778 | 770.2 | 762.2 | 754.1 | 736.8 | 718.2
40000 kPa | – | 793.1 | 789.4 | 781.9 | 774.3 | 766.5 | 758.6 | 741.8 | 723.8
45000 kPa | 800.2 | 796.6 | 792.9 | 785.6 | 778.1 | 770.5 | 762.8 | 746.4 | 729
50000 kPa | 803.4 | 799.9 | 796.3 | 789.1 | 781.7 | 774.3 | 766.7 | 750.7 | 733.7
55000 kPa | 806.5 | 803 | 799.4 | 792.3 | 785.1 | 777.7 | 770.2 | 754.5 | 737.9
60000 kPa | 809.3 | 805.9 | 802.4 | 795.3 | 788.2 | 780.9 | 773.5 | 757.9 | 741.5
